Reference: patent US20220403364A1, “BACTERIA IN 3D POROUS MEDIA” (The Trustees of Princeton University, priority 2019, published 2022)

Columns and labels:
bacteria [1] = experiment: bacterial growth in liquid LB media with no shaking, with antibiotic (light absorbance at 600 nm); type: cell-based
Description: (§1) In both figures, different concentrations of ampicillin were tested 1 μg/ml (ref. 511, 521), 2 μg/ml (ref 512, 522), 3 μg/ml (ref 513, 523), 4 μg/ml (ref 514, 524) and 6 μg/ml (ref 515, 525). For FIG. 6B, the different concentrations were added to bacteria in liquid LB media with no shaking.
(§2) In FIGS. 6A-6C, the levels of bacteria were monitored by measuring light absorbance at 600 nm. In some embodiments, the cells or media is irradiated with light from a light source positioned above the cells, and a lens or sensor positioned below the cells then captures the light either being emitted from the cells (i.e., the intensity of light being emitted by a marker gene, etc.) or being transmitted through the cells (i.e., not being absorbed). A processor can then be used to quantify the measured light or sensor signals. Further a processor can also be used to convert the measured light or sensor signals into concentrations or bacterial cell counts, via, e.g., calibration curves. Based on that, various antibiotic performance characteristics can be determined—MIC, minimal bactericidal concentration (MBC), etc.

bacteria [2] = experiment: bacterial growth in the 3D porous medium with antibiotic (light absorbance at 600 nm); type: cell-based; conditions: porous media
Description: In some embodiments, changes in growth/motility due to changes in antibiotic or antibiotic concentrations can be quantified. […] Using an 0.81% gel with different concentrations of kanamycin ([…] (ref 504), 317.5 μg/ml (ref 503), 156.25 μg/ml (ref 502), and 78.125 μg/ml (ref 501)), it can be seen that for the two highest concentrations, there was no growth.
as §1, §2

CC1(C)S[C@@H]2[C@H](NC(=O)[C@H](N)c3ccccc3)C(=O)N2[C@H]1C(=O)O [ampicillin]
bacterial growth (bacteria [1]; ampicillin 1 μg/ml, FIG. 6B ref 511): growth was detected
bacterial growth (bacteria [1]; ampicillin 2 μg/ml, FIG. 6B ref 512): growth was detected
bacterial growth (bacteria [1]; ampicillin 3 μg/ml, FIG. 6B ref 513): growth was detected
bacterial growth (bacteria [1]; ampicillin 4 μg/ml, FIG. 6B ref 514): no growth
bacterial growth (bacteria [1]; ampicillin 6 μg/ml, FIG. 6B ref 515): no growth
bacterial growth (bacteria [2]; ampicillin 1 μg/ml, FIG. 6C ref 521): showed growth
bacterial growth (bacteria [2]; ampicillin 2 μg/ml, FIG. 6C ref 522): only the 1 μg/ml concentration showed growth
bacterial growth (bacteria [2]; ampicillin 3 μg/ml, FIG. 6C ref 523): only the 1 μg/ml concentration showed growth
bacterial growth (bacteria [2]; ampicillin 4 μg/ml, FIG. 6C ref 524): only the 1 μg/ml concentration showed growth
bacterial growth (bacteria [2]; ampicillin 6 μg/ml, FIG. 6C ref 525): only the 1 μg/ml concentration showed growth
